# Results taken from DBAASP.
# Key:
# Assay in all cases: ≥ marks a high value that may be exact or a test limit, other limits are often not marked, values filed in µg/mL are converted to µM
# [1] = tested on: Bacillus subtilis CCT 2471
# Candida albicans = tested on: Candida albicans
# [2] = tested on: Enterobacter cloacae ATCC 23355
# [3] = tested on: Escherichia coli CCT 1371
# [4] = tested on: Klebsiella pneumoniae ATCC 13883
# [5] = tested on: Pseudomonas aeruginosa ATCC 27853
# [6] = tested on: Staphylococcus aureus ATCC 6535
# [7] = tested on: Staphylococcus saprophyticus
# [8] = tested on: Acinetobacter baumannii 97830
# [9] = tested on: Acinetobacter baumannii 9931
# [10] = tested on: Acinetobacter baumannii ATCC 19606
# [11] = tested on: Bacillus subtilis ATCC 23857
# Escherichia coli 780 = tested on: Escherichia coli 780
# Escherichia coli 804 = tested on: Escherichia coli 804
# [12] = tested on: Klebsiella pneumoniae ATCC 700603
# [13] = tested on: Pseudomonas aeruginosa 50
# [14] = tested on: Pseudomonas aeruginosa 73
# [15] = tested on: Pseudomonas aeruginosa ATCC 9027
# [16] = tested on: Staphylococcus aureus 113
# Staphylococcus aureus 75 = tested on: Staphylococcus aureus 75
# [17] = tested on: Staphylococcus aureus ATCC 29213
# [18] = tested on: Staphylococcus epidermidis ATCC 12228
# [19] = tested on: Escherichia coli ATCC 25922
# [20] = tested on: Yersinia enterocolitica ATCC 23715
# [21] = tested on: Bifidobacterium longum subsp. infantis
# Escherichia coli = tested on: Escherichia coli
# Staphylococcus aureus = tested on: Staphylococcus aureus
# [22] = tested on: Candida albicans ATCC 10231
# [23] = tested on: Cryptococcus neoformans ATCC 32264
# [24] = tested on: Salmonella enterica subsp. enterica serovar Enteritidis
# Salmonella sp. = tested on: Salmonella sp.
# [25] = tested on: Staphylococcus aureus ATCC 43300
# Yersinia enterocolitica = tested on: Yersinia enterocolitica
# Fusarium graminearum = tested on: Fusarium graminearum
# Bacillus cereus = tested on: Bacillus cereus
# Leuconostoc lactis = tested on: Leuconostoc lactis
# Listeria innocua = tested on: Listeria innocua
# Micrococcus luteus = tested on: Micrococcus luteus
# Pasteurella multocida = tested on: Pasteurella multocida
# [26] = tested on: Staphylococcus epidermidis
# Streptococcus uberis = tested on: Streptococcus uberis
smiles,measurement,setting,value
CC[C@H](C)[C@H](NC(=O)[C@H](CO)NC(=O)[C@@H](NC(=O)[C@H](CCCCN)NC(=O)[C@H](Cc1ccccc1)NC(=O)[C@@H]1CCCN1C(=O)[C@@H](N)[C@@H](C)O)[C@@H](C)CC)C(=O)N[C@@H](Cc1cnc[nH]1)C(=O)N[C@@H](CC(C)C)C(N)=O [TPFKISIHL],MIC,[1],28.4 µM
same,MIC,Candida albicans,2.37 µM
same,MIC,[2],14.2 µM
same,MIC,[3],14.2 µM
same,MIC,[4],14.2 µM
same,MIC,[5],14.2 µM
same,MIC,[6],14.2 µM
same,MIC,[7],9.48 µM
NCC(=O)N[C@@H](Cc1c[nH]c2ccccc12)C(=O)N[C@@H](CCCN=C(N)N)C(=O)N[C@@H](Cc1c[nH]c2ccccc12)C(=O)N[C@@H](Cc1c[nH]c2ccccc12)C(=O)N[C@@H](Cc1c[nH]c2ccccc12)C(=O)N[C@@H](CCCN=C(N)N)C(=O)N[C@@H](Cc1c[nH]c2ccccc12)C(=O)NCC(N)=O [GWRWWWRWG],MIC,[8],16 µM
same,MIC,[9],8 µM
same,MIC,[10],32 µM
same,MIC,[11],4 µM
same,MIC,Escherichia coli 780,8 µM
same,MIC,Escherichia coli 804,16 µM
same,MIC,[12],32 µM
same,MIC,[13],≥ 32 µM
same,MIC,[14],≥ 32 µM
same,MIC,[5],64 µM
same,MIC,[15],64 µM
same,MIC,[16],8 µM
same,MIC,Staphylococcus aureus 75,8 µM
same,MIC,[17],8 µM
same,MIC,[18],8 µM
CC[C@H](C)[C@H](NC(=O)[C@@H]1CCCN1C(=O)[C@H](CC(N)=O)NC(=O)[C@H](Cc1cnc[nH]1)NC(=O)[C@@H](NC(=O)[C@@H]1CCCN1C(=O)[C@H](C)NC(=O)[C@H](CC(C)C)NC(=O)[C@@H]1CCCN1C(=O)[C@H](CCC(N)=O)NC(=O)[C@@H](NC(=O)[C@@H](NC(=O)[C@@H]1CCCN1C(=O)[C@@H](N)Cc1ccc(O)cc1)C(C)C)[C@@H](C)O)C(C)C)C(=O)N[C@@H](CO)C(=O)O [YPVTQPLAPVHNPIS],MIC,[19],1.91 µM
same,MIC,[20],3.83 µM
NCCCC[C@H](NC(=O)CNC(=O)[C@H](Cc1ccccc1)NC(=O)[C@H](CCCCN)NC(=O)[C@@H](N)CCC(=O)O)C(=O)N[C@@H](CC(=O)O)C(=O)N[C@@H](CCCCN)C(=O)N[C@@H](CO)C(=O)N1CCC[C@H]1C(=O)N[C@@H](CCCCN)C(=O)N[C@@H](Cc1ccccc1)C(=O)N[C@@H](CCC(N)=O)C(=O)O [EKFGKDKSPKFQ],MIC,[21],≥ 2090 µM
same,MIC,Escherichia coli,2090 µM
same,MIC,Staphylococcus aureus,2090 µM
CC[C@H](C)[C@H](NC(=O)[C@H](CCC(N)=O)NC(=O)[C@@H](N)CCCN=C(N)N)C(=O)N[C@@H](CCCN=C(N)N)C(=O)N[C@@H](CCCN=C(N)N)C(=O)N[C@@H](Cc1c[nH]c2ccccc12)C(=O)N[C@@H](Cc1c[nH]c2ccccc12)C(=O)N[C@@H](CCC(N)=O)C(=O)N[C@@H](Cc1c[nH]c2ccccc12)C(N)=O [RQIRRWWQW],MIC,[22],50 µM
same,MIC,[23],25 µM
same,MIC,[19],> 50 µM
same,MIC,Escherichia coli,44.7 µM
same,MIC,[5],> 50 µM
same,MIC,[24],≥ 50 µM
same,MIC,Salmonella sp.,30 µM
same,MIC,[17],> 50 µM
same,MIC,[25],> 50 µM
same,MIC,Yersinia enterocolitica,≥ 50 µM
NC(=O)C[C@H](NC(=O)CNC(=O)[C@H](Cc1ccccc1)NC(=O)[C@@H](N)Cc1c[nH]c2ccccc12)C(=O)N[C@@H](CS)C(=O)NCC(=O)N[C@@H](CC(N)=O)C(=O)N1CCC[C@H]1C(=O)N[C@@H](CCCN=C(N)N)C(=O)N[C@@H](Cc1cnc[nH]1)C(=O)N[C@@H](CS)C(=O)NCC(=O)O [WFGNCGNPRHCG],MIC,Fusarium graminearum,≥ 70 µM
CC[C@H](C)[C@H](NC(=O)[C@H](CO)NC(=O)CNC(=O)[C@@H](NC(=O)[C@H](CC(C)C)NC(=O)CN)[C@@H](C)CC)C(=O)NCC(=O)N[C@@H](CCCCN)C(=O)N[C@@H](C)C(=O)N[C@@H](CC(C)C)C(=O)NCC(=O)NCC(=O)N[C@@H](CC(C)C)C(=O)N[C@@H](CC(C)C)C(=O)N[C@H](C(=O)N[C@@H](CC(=O)O)C(=O)N[C@H](C(=O)N[C@@H](CC(C)C)C(=O)N[C@@H](CCCCN)C(=O)N1CCC[C@H]1C(=O)N[C@@H](CCCCN)C(=O)N[C@@H](CC(C)C)C(=O)O)C(C)C)C(C)C [GLIGSIGKALGGLLVDVLKPKL],MIC,Bacillus cereus,≥ 46.3 µM
same,MIC,Escherichia coli,> 46.3 µM
same,MIC,Leuconostoc lactis,23.1 µM
same,MIC,Listeria innocua,≥ 46.3 µM
same,MIC,Micrococcus luteus,≥ 46.3 µM
same,MIC,Pasteurella multocida,≥ 46.3 µM
same,MIC,Staphylococcus aureus,> 46.3 µM
same,MIC,[26],≥ 46.3 µM
same,MIC,Streptococcus uberis,≥ 46.3 µM
